Assays:
[1] = tested on: CT26-G12C colon cancer cells; type: in vivo, mouse
Description: CT26-G12C colon cancer cells were SC. Implanted in BALB/C mice, and left to develop SC. Tumors for 20 days, then treated with oral gavage of 3 mg/kg/mouse TRA or 30 mg/kg/mouse AMG-510 for 6 days alone or for 20 days with anti-PD1 Ab (IP 200 μg/mouse twice a week). Tumor size was measured till mice being sacrificed. tumors were collected and stained for T cell, and Myeloid cell markers mouse antibodies (anti-CD45, anti-CD8, anti-CD4, anti-CD3, anti-CD69, anti-PD1, anti-CD25, anti-CD62L, anti-CD44, anti-F4/80, anti-CD11C, anti-CD11b, anti-Ly6G, ant-Ly6C and Live/Dead near IR viability dye). CM (central memory): CD62L+CD44+, EM (Effector memory) CD62L-CD44+. Mice survival was assessed using Kaplan-Meier survival test.

CT26-G12C tumors = experiment: Single cell RNA sequencing of CT26-G12C tumors; type: in vivo, mouse
Source text: UMAP projections were generated from scRNA-seq data and used for visualization. Cell type clusters detected in DAPI-sorted cells from CT26-G12C SC. Tumors (FIG. 4A), or from CT26-G12C in vitro cell line (FIG. 4D) treated with the indicated conditions are shown, with cell % percentage histogram and gene-level expression heat map calculated for each cluster.

HCC44-PSCA = HCC44-PSCA SC tumors in NSG mice with IV CAR-T transfer (human T cell ACT mouse model); type: in vivo
Description: Inoculated in NSG mice and received IV CART transfer with AMG-510 Orla gavage (30 mg/Kg/Mouse for 6 days then sacrificed and tumors were collected and stained with T cells markers, or for 20 days with IP anti-human PD1 Ab (twice a week) for Tumor growth curve.

## C=CC(=O)N1CCN(c2nc(=O)n(-c3c(C)ccnc3C(C)C)c3nc(-c4c(O)cccc4F)c(F)cc23)[C@@H](C)C1 (atropisomer, axis not shown) [Sotorasib, 6-fluoro-7-(2-fluoro-6-hydroxyphenyl)-(1/W)-1-[4-methyl-2-(propan-2-yl)pyridin-3-yl]-4-[(2S)-2-methyl-4-(prop-2-enoyl)piperazin-1-yl]pyrido[2,3-cf]pyrimidin-2 (1/-/)-one]
[1]; CT26-G12C heterotrophic mouse model, 30 mg/kg/mouse oral gavage, 6 days
  expansion of tumor infiltrating lymphocytes (TILs): significantly promoted the expansion of tumor infiltrating lymphocytes
[1]; combined with anti-PD-1, CT26-G12C model
  mouse survival (Kaplan-Meier): prolonging mouse survival
[1]; mouse tumor models
  tumor microenvironment / T cell effector phenotype: strikingly augmented T cell effector phenotype
[1]; mouse, in vivo, ip
  control of CT26-G12C tumor growth: synergized with anti-PD-1 in controlling CT26-G12C tumor growth
CT26-G12C tumors; CT26-G12C SC tumors and in vitro cell line
  immuno-active and growth-active tumor clusters (scRNA-seq, cell % per cluster): enriches the immuno-active and diminishes growth-active tumor clusters
CT26-G12C tumors; Sotorasib-treated CT26-G12C tumors
  tumor clusters by top upregulated pathways (scRNA-seq): enrichment of tumor clusters with TNFα and IFNγ as top upregulated pathways
HCC44-PSCA; combined with CAR-T adoptive cell transfer and anti-PD1 treatment
  anti-tumor effect of CAR-T adoptive cell transfer and anti-PD1: enhanced their anti-tumor effect
HCC44-PSCA; human T cell adoptive therapy (ACT) mouse model, 30 mg/Kg/Mouse oral gavage, 6 days
  expansion of tumor infiltrating lymphocytes (TILs): significantly promoted the expansion of tumor infiltrating lymphocytes

Reference: patent publication US20250295665A1, “SELECTIVE K-RAS INHIBITORS FOR THE ENHANCEMENT OF ADOPTIVE IMMUNOTHERAPIES” (H. LEE MOFFITT CANCER CENTER AND RESEARCH INSTITUTE INC., priority 2022, published 2025)
